Measured values as given in article PMC12441861, “Next-Generation Lipid Prodrugs Orally Deliver Tenofovir via Enhanced Chylomicron Incorporation” (ACS Pharmacology & Translational Science, 2025).
Where two headings read alike, the source gives them in different places.

Assays:
[1] = Metabolic stability in human liver microsomes; type: in vitro ADME; details: pH 7.4, read-out: Metabolic Stability HLM t1/2
Description: Assays employed human liver microsomes (HLMs, 20 mg/mL) from Xenotech. A 10 mM NADPH stock was prepared in deionized H2O, and test compounds were dissolved in 100% MeOH to a final concentration of 10 mM. The stock solutions were diluted to 500 μM in 100 mM potassium phosphate buffer (pH 7.4), keeping the final MeOH concentration below 0.2%. Reaction mixtures were prepared by combining 928 μL phosphate buffer, 55 μL liver microsomes, and the test compound solution to a final concentration of 3 μM. Verapamil was used as a positive control. The reactions were initiated with the addition of 110 μL of 10 mM NADPH. Aliquots were taken in duplicate at 0, 5, 10, 15, and 30 min, quenched with 100 μL of cold MeOH containing 2 μM internal standard (d 5-7-ethoxy coumarin), and centrifuged at 12,000 RCF for 5 min. The supernatants were then transferred to LC-MS vials for analysis. The average of each duplicate was normalized to the 0 min time point, representing 100% remaining (0% metabolism).

Cytotoxicity, MTT assay = details: human, TZM-bl cells
Description: To measure cytotoxicity, HeLa-derived TZM-bl cells , were treated with serial dilutions of each drug, and viability was assessed after 48 h. Two methods were used: an ATP luminescence assay, which measures cellular ATP levels as an indicator of metabolic activity (compounds 8a–d), and an MTT assay, which evaluates cell viability via mitochondrial enzymatic activity (compounds 15b, 21a, and 21b).
The TZM-bl cell line (BEI Resources, ARP-8129) was used to evaluate both cell viability and HIV pseudovirus infectivity reduction. Cytotoxicity in this cell line was measured via two methods. The first method, an ATP luminescence assay, was used for compounds 15a, 15b, 21a, and 21b as such: 6000 TZM-bl cells per well were seeded in a 96-well plate and incubated at 37 °C with 5% CO2 for 24 h. Compounds were prepared as serial dilutions (final concentrations of 1, 0.2, 0.04, 0.008, and 0.0016 μM) in complete DMEM with DEAE-Dextran at 40 μg/mL to mimic HIV infectivity conditions. Solutions were added to the cells and incubated for another 48 h. Viability was assessed using the Promega Cell Titer Glow (CTG) Assay (cat No. G9242) by adding a 50% PBS-CTG solution to each well and measuring luminescence, which correlates with ATP levels, on an Agilent BioTek Synergy HT reader. Cytotoxicity of compounds 8a–d was determined using a colorimetric assay based the conversion of MTT (3-(4,5-dimethylthiazol-2-yl)-2,5-diphenyltetrazolium bromide) to formazan as described previously. TZM-bl cells were plated into 96-well tissue culture plates 1 day prior to performing the MTT assay. A series of 10 3-fold dilutions of each compound was performed from a starting concentration of 10 mM and each dilution was tested for a reduction in cell viability according to the manufacturer’s instructions (CyQuant MTT Cell Viability Assay, ThermoFisher, V13154). Wells containing TZM-bl cells with media only were used as a control. Briefly, serial dilutions of each test compound were added to the plated TZM-bl cells. At 48 h, the media was removed and replaced with 100 mL of fresh culture medium. 10 mL of 12 mM MTT solution was added to each well and incubated at 37 °C for 4 h. 85 mL of supernatant was then removed from each well and replaced with 50 mL of DMSO. Following a 10 min incubation at 37 °C, the absorbance of each well was determined at 540 nm using a Biotek Synergy Neo2 multimode reader and Gen5 v3.02 software.

Caco-2 cell-derived CMs = type: in vitro ADME, human; details: 10 μM test drug, Caco-2 cells
Description: [formula] 1 Chylomicron (CM) Isolation and Drug Quantification Methods ^a a (1) Caco-2 cells were grown to confluence. (2) Lipid mix was added to media (final drug concentration of 10 μM), and cells were incubated for 4 h. (3) Cells were washed 3× with PBS. (4) Cells were incubated in fresh media overnight. (5) CM-containing media was collected. (6) Media was combined with a 1.20 g/mL NaCl solution in an ultracentrifugation tube, 500 μL H2O was carefully layered on top, and the mixture was centrifuged at 10,950 RCF for 3 h. (7) The CM-containing upper layer was carefully isolated with a fine-tip pipette. (8) Test drug was then extracted from the CM layer with 70% ACN and quantified using LC-MS/MS.
With the presence of CMs in isolated Caco-2 cell extracts confirmed and reproducibility validated across replicates and different drugs, we were eager to investigate drug incorporation during CM biogenesis in vitro. Accordingly, we added test compound (Figure ) to differentiated Caco-2 cells along with the lipid mix to a final test drug concentration of 10 μM. While 10 μM was selected as a standard concentration for these studies, higher concentrations could allow detection of other compounds with low CM association in future experiments. In either case, CMs secreted by Caco-2 cells can be isolated postincubation, and drug concentrations within CMs can be assessed using highly sensitive LC-MS/MS methodology. Positive (high c Log D) and negative (low c Log D) control compounds were selected to validate this assay. […] Given these properties, we expected CAB to readily package into CMs in vitro. […]. […] This sets the stage for quantitative comparisons of TXL and its functionalized analogs, which are detailed below.
At 14-days postconfluence, Caco-2 cells were incubated in a lipid mixture to induce secretion of CMs. For the lipid solution, oleic acid (50 mg), lecithin (40 mg), and sodium taurocholate (48 mg) were weighted out into an Eppendorf tube, and the volume was brought up to 900 μL with PBS, followed by vigorous vortexing to ensure sample homogeneity. This 100× lipid mixture was then diluted into growth media to achieve the desired concentrations (2 mM oleic acid, 1.36 mM lecithin, 1 mM sodium taurocholate) by adding 500 μL of the lipid mixture to 49.5 mL of media. The lipid-supplemented media was thoroughly mixed and sterilized by filtration using a 250 mL sterile vacuum filter. For the drug-exposed CM experiments, each test compound was dissolved in 2 mM human serum albumin (HAS, Sigma, essentially fatty acid free) in DPBS, then added to 10 mL aliquots of lipid-containing media to achieve a final concentration of 10 μM. Subsequently, lipid-containing media was added to Caco-2 cells and incubated for 4 h at 37 °C. After incubation, cells were washed twice with PBS then incubated for 4, 8, or 20 h at 37 °C in fresh, colorless growth medium. Media was collected into 15 mL falcon tubes and centrifuged at 2000g to remove cell debris. Postcentrifugation, the supernatant was transferred to 50 mL Nalgene Oak Ridge High-Speed PPCO Centrifuge Tubes. Next, to adjust the density for ultracentrifugation, 1.19 g of NaCl in 2 mL of deionized (DI) H2O were added to reach a final volume of 5 mL, corresponding to a density of 1.20 g/mL. This mixture was dissolved by vortexing and balanced by weight. 500 μL of DI H2O was carefully overlaid onto the mixture. Ultracentrifugation was performed for 2 h and 30 min at 10,920 relative centrifugal force (RCF). Immediately after centrifugation, the top 500 μL layer, containing CMs, was carefully collected using a gel-loading pipet tip.
To an aliquot of CM extract was added an equal volume of ACN into 1.5 mL Eppendorf tubes. Tubes were shaken for 1 h at rt then centrifuged at 15,000 RCF to remove debris. The clear supernatant was transferred to a glass vial and concentrated under reduced pressure to yield a dry solid. Sample was then reconstituted in 70% ACN in H2O, filtered and then analyzed. […]

[2] = cited from earlier work
[3] = cited from earlier work; remark: listed apart in the source

Structure (SMILES): CCCCCCCCCCCCCCCCOC[C@H](COP(=O)(O)CO[C@H](C)Cn1cnc2c(N)ncnc21)OCc1ccccc1 [8c, Ammonium[(1R)-2-(6-aminopurin-9-yl)-1-methyl-ethoxy]methyl-[(2R)-2-benzyloxy-3-hexadecoxy-propoxy]phosphinate]
- half-life at 3 µM [1]: > 2 h
- CC50 at 48 h (Cytotoxicity, MTT assay): > 10 µM

Structure (SMILES): CN(C)C(=N)N=C(N)N [MET, metformin, reference compound]
- detection of compound in CM extract by LC-MS/MS (Caco-2 cell-derived CMs): absence

Structure (SMILES): CCCCCCCCCCCCCCCCCCOC[C@@H](COP(=O)(O)CO[C@H](C)Cn1cnc2c(N)ncnc21)OCc1ccccc1 [8b, Ammonium[(1R)-2-(6-aminopurin-9-yl)-1-methyl-ethoxy]methyl-[(2S)-2-benzyloxy-3-octadecoxy-propoxy]phosphinate]
- half-life at 3 µM [1]: > 2 h
- CC50 at 48 h (Cytotoxicity, MTT assay): > 10 µM

Structure (SMILES): CCCCCCCCCCCCCCCC(=O)OCC(COC(=O)CCCCCCCCCCCCCCC)OC(=O)CCCSSCCCC(=O)O[C@@H](C(=O)O[C@H]1C[C@@]2(O)[C@@H](OC(=O)c3ccccc3)[C@@H]3[C@]4(OC(C)=O)CO[C@@H]4C[C@H](O)[C@@]3(C)C(=O)[C@H](O)C(=C1C)C2(C)C)[C@@H](NC(=O)OC(C)(C)C)c1ccccc1 [DTX-S-S-TG]
- Δ Oral Availability (% versus Parent) ([2]; parent Docetaxel, ref Tian 2019): 44%
- Evidence of Lymphatic Uptake ([3]; ref Tian 2019): Cycloheximide inhibition reduces lymphatic transport and prodrug bioavailability

Structure (SMILES): CCCCCCCCCCCCCCCC(=O)OCC(COC(=O)CCCCCCCCCCCCCCC)OC(=O)CC(C)CC(=O)OCOC1CCC2C3CCC4=CC(=O)CCC4(C)C3CCC12C (stereo not shown) [Testosterone-ASI-C5-βMe-TG]
- Δ Oral Availability (% versus Parent) ([2]; parent Testosterone, ref Hu 2016): 90%
- orally-dosed drug recovered in mesenteric lymph ([3]; ref Hu 2016): 28% orally-dosed drug recovered in mesenteric lymph (0% for parent)

Structure (SMILES): CCCCCCCCCCCCCCCCOC[C@@H](COP(=O)(O)CO[C@H](C)Cn1cnc2c(N)ncnc21)OCc1ccccc1 [8a, Ammonium[(1R)-2-(6-aminopurin-9-yl)-1-methyl-ethoxy]methyl-[(2S)-2-benzyloxy-3-hexadecoxy-propoxy]phosphinate]
- half-life at 3 µM [1]: > 2 h
- CC50 at 48 h (Cytotoxicity, MTT assay): > 10 µM

Structure (SMILES): CCCCCCCCCCC(=O)O[C@H]1CC[C@H]2[C@@H]3CCC4=CC(=O)CC[C@]4(C)[C@H]3CC[C@]12C [Testosterone Undecanoate (TU), Testosterone Undecanoate]
- Δ Oral Availability (% versus Parent) ([2]; parent Testosterone, ref Shackleford 2003): 7%
- lymphatic transport as share of systemic availability ([3]; oral administration, ref not printed in text (Table 1: Shackleford 2003)): 91.5–99.7%

Structure (SMILES): CCCCCCCCCCCCCCCC(=O)OCC(COC(=O)CCCCCCCCCCCCCCC)OC(=O)CC(C)CC(=O)Oc1cc(C)cc(C)c1C(C)(C)CC(=O)Oc1ccc2c3c1O[C@H]1[C@@]4(OC)CC[C@@]5(C[C@@H]4[C@](C)(O)C(C)(C)C)[C@@H](C2)N(CC2CC2)CC[C@]315 (stereo partly shown) [BUP-TML-C5βMe-TG]
- Δ Oral Availability (% versus Parent) ([2]; parent Buprenorphine, ref Quach 2022): 83%
- oral dose recovered in mesenteric lymph ([3]; within 6 h, ref Quach 2022): 44.7% oral dose recovered in mesenteric lymph within 6 h

Structure (SMILES): CO[C@H]1C(=O)[C@]2(C)[C@@H](OC)C[C@H]3OC[C@@]3(OC(C)=O)[C@H]2[C@H](OC(=O)c2ccccc2)[C@]2(O)C[C@H](OC(=O)[C@H](O)[C@@H](NC(=O)OC(C)(C)C)c3ccccc3)C(C)=C1C2(C)C [CAB, Cabazitaxel, reference compound]
- detection of compound in CM extract by LC-MS/MS (Caco-2 cell-derived CMs): presence

Structure (SMILES): C[C@]12CC[C@H]3[C@@H](CCC4=CC(=O)CC[C@@]43C)[C@@H]1CC[C@@H]2O [Testosterone]
- orally-dosed drug recovered in mesenteric lymph ([3]; in vivo, po): 28% orally-dosed drug recovered in mesenteric lymph (0% for parent)

Structure (SMILES): CCCCCCCCCCCCCCCCCCCC(=O)OCC(COP(=O)([O-])OCC[N+](C)(C)C)OC(=O)C(CCC)CCC (stereo not shown) [DP-VPA]
- Δ Oral Availability (% versus Parent) ([2]; parent Valproic Acid, ref Dahan 2008): 9%
- orally-dosed drug recovered in mesenteric lymph ([3]; ref Dahan 2008): 60% orally-dosed drug recovered in mesenteric lymph
